This is an account of results in US8614217B2 (priority 2008, dated 2013).

The structures appear in SMILES notation.

One data set is described as follows: log P(HCOOH) (HPLC/MS). The conditions noted are these: HCOOH (formic acid); read-out: log P(HCOOH). Format: physicochemical.
Turning to `O=C1c2ccccc2C(=O)N1OCc1cccc(N2C(=O)c3ccccc3C2=O)n1` [2-(6-{[(1,3-dioxo-1,3-dihydro-2H-isoindol-2-yl)oxy]methyl}pyridin-2-yl)-1H-isoindole-1,3(2H)-dione], the chromatographic logP stood at 2.44.
For `Cn1nnnc1C(=NOCc1cccc(N2C(=O)c3ccccc3C2=O)n1)c1ccccc1` [2-{6-[({[(1-methyl-1H-tetrazol-5-yl)(phenyl)methylene]amino}oxy)methyl]pyridin-2-yl}-1H-isoindole-1,3(2H)-dione], the chromatographic logP amounted to 3.04.
On the same count and under the same terms, the figure for `NOCc1cccc(N)n1` [6-[(aminooxy)methyl]pyridin-2-amine] is under -0.23; for `Cn1nnnc1C(=NOCc1cccc(N)n1)c1ccccc1` [6-[({[(1-methyl-1H-tetrazol-5-yl)(phenyl)methylene]amino}oxy)methyl]pyridin-2-amine] it is 1.14.
On the same count and under the same terms, the figure for `Cn1nnnc1/C(=N\OCc1cccc(NC(=O)OCCCCCl)n1)c1ccccc1` [Example 67, 4-chlorobutyl {6-[({[(Z)-(1-methyl-1H-tetrazol-5-yl)(phenyl)methylene]amino}oxy)methyl]pyridin-2-yl}carbamate] is 3.67.

The same data set, now with this note: HCOOH; read-out: log P(HCOOH).
Turning to `Cn1nnnc1C(=NOCc1cccc(N)n1)c1ccccc1` [6-[({[(1-methyl-1H-tetrazol-5-yl)(phenyl)methylene]amino}oxy)methyl]pyridin-2-amine], the chromatographic logP was 1.13.

The data set is the same for the next values; noted with them: HPLC on reversed phase columns, EEC directive 79/831 Annex V.A8; pH 2.7, 0.1% formic acid in water / acetonitrile gradient.
With `Cc1nnnn1C(=NOCc1csc(NC(=O)C2CCOCC2)n1)c1ccccc1` (mixture of isomers) [Example 73], the log p worked out at 2.49.
On the same count and under the same terms, the value for `Cc1nnnn1C(=NOCc1csc(NC(=O)COC2CC(C)CCC2C(C)C)n1)c1ccccc1` (mixture of isomers) [Example 86] was 5.48.
On the same count and under the same terms, the figure for `Cn1nnnc1C(=NOCc1cccc(NC(=O)CCOc2ccccc2)n1)c1cccc(F)c1` [Example 10] is 3.64; for `C#CCCOC(=O)Nc1cccc(CON=C(c2cccc(F)c2)c2nnnn2C)n1` [Example 13] it is 3.21.
Same read-out and setting: the figure for `C#CCCOC(=O)Nc1cccc(CON=C(c2ccccc2)n2nnnc2C)n1` [Example 17] is 3.15; for `Cc1nnnn1C(=NOCc1cccc(NC(=O)OCCCCCl)n1)c1ccccc1` [Example 20] it is 3.73.
`Cc1nnnn1C(=NOCc1cccc(NC(=O)OC2CCCCCC2)n1)c1ccccc1` [Example 21] showed a log p of 4.71.
The same measure, in the same setting: the figure for `C#CCCOC(=O)Nc1cccc(CON=C(c2cccc(F)c2)n2nnnc2C)n1` [Example 23] is 3.21; for `C#CCCCC(=O)Nc1cccc(CON=C(c2cccc(F)c2)n2nnnc2C)n1` [Example 35] it is 3.15; for `Cc1nnnn1C(=NOCc1cccc(NC(=O)CC2CCCCC2)n1)c1ccccc1` [Example 40] it is 4.12.
The compound `Cc1nnnn1C(=NOCc1cccc(NC(=O)CC2CCCCC2)n1)c1cccc(F)c1` [Example 41] displayed a log p of 4.23.
On the same count and under the same terms, the value for `Cc1nnnn1C(=NOCc1cccc(NC(=O)CCC2CCCC2)n1)c1ccccc1` [Example 44] was 4.25.
The same measure, in the same setting: the figure for `Cc1nnnn1C(=NOCc1cccc(NC(=O)CCC2CCCC2)n1)c1cccc(F)c1` [Example 45] is 4.33.
The same measure, in the same setting: the value for `Cc1nnnn1C(=NOCc1cccc(NC(=O)C(F)(F)Sc2ccccc2)n1)c1ccccc1` [Example 48] was 4.2.
Compound `C#CCCCC(=O)Nc1cccc(CON=C(c2ccccc2)c2nnnn2C)n1` [Example 55] displayed a log p of 2.98.
Same read-out and setting: the value for `C=CCOC(=O)Nc1cccc(CON=C(c2ccccc2)c2nnnn2C)n1` [Example 56] was 3.21; that for `C=CCCOC(=O)Nc1cccc(CON=C(c2ccccc2)c2nnnn2C)n1` [Example 57] was 3.51.
On the same count and under the same terms, the value for `C=C(C)OC(=O)Nc1nc(CON=C(c2ccccc2)n2nnnc2C)cs1` [Example 104] was 2.96; that for `C=C(C)OC(=O)Nc1cccc(CON=C(c2ccccc2)n2nnnc2C)n1` [Example 107] was 3.21.
On the same count and under the same terms, the value for `Cc1nnnn1C(=NOCc1cccc(NC(=O)C2(c3ccccc3)CC2)n1)c1ccccc1` [Example 110] was 2.55.
Regarding `Cc1nnnn1C(=NOCc1cccc(NC(=O)C(F)(F)C(F)(F)C(F)(F)C(F)(F)C(F)(F)C(F)(F)C(F)(F)F)n1)c1ccccc1` [Example 119], the log p was found to be 5.93.
On the same count and under the same terms, the figure for `Cc1nnnn1C(=NOCc1cccc(NC(=O)c2ccc(Cl)nc2)n1)c1ccccc1` [Example 121] is 3.15; for `Cc1nnnn1C(=NOCc1cccc(NC(=O)CC2CC2)n1)c1ccccc1` [Example 124] it is 2.94.
The same measure, in the same setting: the value for `Cc1nnnn1C(=NOCc1cccc(NC(=O)CO[C@@H]2C[C@H](C)CC[C@H]2C(C)C)n1)c1ccccc1` [Example 126] was 5.95; that for `Cc1nnnn1C(=NOCc1cccc(NC(=O)C2CCC(=O)O2)n1)c1ccccc1` (stereo not shown) [Example 130] was 2.44.
Take `Cc1nnnn1C(=NOCc1cccc(NC(=O)COCc2ccccc2)n1)c1ccccc1` [Example 144]: the log p was found to be 3.73.
On the same count and under the same terms, the value for `COC(=O)CCCCC(=O)Nc1cccc(CON=C(c2ccccc2)n2nnnc2C)n1` [Example 145] was 2.86; that for `CCOC(=O)CCCC(=O)Nc1cccc(CON=C(c2ccccc2)n2nnnc2C)n1` [Example 148] was 2.98; that for `Cc1nnnn1C(=NOCc1cccc(NC(=O)CSCc2ccccc2)n1)c1ccccc1` [Example 151] was 3.73.
Still for that read-out and setting: the figure for `Cn1nnnc1C(=NOCc1csc(NC(=O)CC2CC2)n1)c1cccc(F)c1` [Example 170] is 2.98.
For the compound `CC1CCC(C(C)C)C(OCC(=O)Nc2nc(CON=C(c3cccc(F)c3)c3nnnn3C)cs2)C1` (stereo not shown) [Example 172], the log p is 5.47.
The same measure, in the same setting: the value for `COCCOCC(=O)Nc1nc(CON=C(c2cccc(F)c2)c2nnnn2C)cs1` [Example 183] was 2.68.
Same read-out and setting: the figure for `COCCOCCOCC(=O)Nc1nc(CON=C(c2cccc(F)c2)c2nnnn2C)cs1` [Example 186] is 2.66.
Same read-out and setting: the value for `Cn1nnnc1C(=NOCc1csc(NC(=O)C(F)(F)C(F)(F)C(F)(F)F)n1)c1cccc(F)c1` [Example 192] was 3.75; that for `Cn1nnnc1C(=NOCc1csc(NC(=O)CSCc2ccccc2)n1)c1cccc(F)c1` [Example 194] was 3.68; that for `Cn1nnnc1C(=NOCc1csc(NC(=O)CCCOc2ccccc2)n1)c1cccc(F)c1` [Example 196] was 3.7.
Take `CC(=O)OCCCCOC(=O)Nc1nc(CON=C(c2cccc(F)c2)c2nnnn2C)cs1` [Example 198]: the log p was found to be 3.15.

Staying with this data set, now noted: HPLC on reversed phase columns, EEC directive 79/831 Annex V.A8; pH 2.7, 0.1% formic acid in water / acetonitrile gradient; read-out: log p.
Turning to `C#CCCCC(=O)Nc1cccc(CON=C(c2ccccc2)n2nnnc2C)n1` [Example 34], the chromatographic logP amounted to 3.04.
On the same count and under the same terms, the figure for `Cn1nnnc1/C(=N\OCc1cccc(NC(=O)OCCCCCl)n1)c1ccccc1` [Example 67, 4-chlorobutyl {6-[({[(Z)-(1-methyl-1H-tetrazol-5-yl)(phenyl)methylene]amino}oxy)methyl]pyridin-2-yl}carbamate] is 3.67.

The same data set, now with this note: HPLC on reversed phase columns, EEC directive 79/831 Annex V.A8; pH 2.7 with 0.1% formic acid in water and acetonitrile.
Turning to `CC(Oc1ccc(F)cc1)C(=O)Nc1cccc(CON=C(c2ccccc2)c2nnnn2C)n1` (mixture of isomers) [Example 262], the log p came to 3.79.
Still for that read-out and setting: the value for `C=CCCOC(=O)Nc1cccc(CON=C(c2ccccc2C)c2nnnn2C)n1` (mixture of isomers) [Example 315] was 3.65; that for `C#CCCOC(=O)Nc1cccc(CON=C(c2ccccc2Cl)c2nnnn2C)n1` (mixture of isomers) [Example 372] was 3.21; that for `Cn1nnnc1C(=NOCc1cccc(NC(=O)CCOc2ccccc2)n1)c1ccccc1Cl` (mixture of isomers) [Example 373] was 3.63.
